These compounds were tested on Erysiphe graminis f.sp. tritici (assay: Erysiphe graminis f.sp. tritici (wheat powdery mildew) leaf disk assay). Settings: Blumeria graminis, foliar, 96 h, preventive, four days after inoculation, read-out: control of fungal infection, Erysiphe graminis fsp. tritici.
Format: in vivo

Structure (SMILES)	pest or weed control at 200 ppm [%]
CC(C)(C)CC(C)(C)c1ccc(OC2C[C@H]3CC[C@@H](C2)N3c2ncnc3sccc23)cc1 (stereo partly shown) [Example 2.35]	≥ 80
Fc1c(F)c(F)c(OC2C[C@H]3CC[C@@H](C2)N3c2ncnc3sccc23)c(F)c1F (stereo partly shown) [Example 2.38]	≥ 80
CSc1ccc(OC2C[C@H]3CC[C@@H](C2)N3c2ncnc3sccc23)cc1C (stereo partly shown) [Example 2.41]	≥ 80
N#Cc1ccc(OC2C[C@H]3CC[C@@H](C2)N3c2ncnc3sccc23)cc1 (stereo partly shown) [Example 2.22]	≥ 80
CC(C)(C)c1ccc(OC2C[C@H]3CC[C@@H](C2)N3c2ncnc3sccc23)cc1 (stereo partly shown) [Example 2.26]	≥ 80
ClCc1cccc(CON=C2CC3CCC(C2)N3c2ncnc3sccc23)c1 [Example 5.200]	≥ 80
c1cncc(CON=C2CC3CCC(C2)N3c2ncnc3sccc23)c1 [Example 5.133]	≥ 80
Cc1ccc(-c2nc(Cl)c(C)c(OC3C[C@H]4CC[C@@H](C3)N4c3ncnc4sccc34)n2)cc1 (stereo partly shown) [Example 1.97]	≥ 80
CCCON=C1CC2CCC(C1)N2c1ccnc2c1c(C)nn2C [Example 5.244]	≥ 80
CCc1ncnc(N2[C@@H]3CC[C@H]2CC(Oc2ccc(C(C)(C)C)cc2C(C)(C)C)C3)c1Cl (stereo partly shown) [Example 1.221]	≥ 80
FC(F)(F)c1ccnc(OC2C[C@H]3CC[C@@H](C2)N3c2ccnc3cc(Cl)ccc23)c1 (stereo partly shown) [Example 2.192]	≥ 80
CCc1ncnc(N2C3CCC2CC(=NOCc2cc(F)c(F)c(C(F)(F)F)c2)C3)c1Cl [Example 5.103]	≥ 80
Cc1cc(Cl)nc(CON=C2CC3CCC(C2)N3c2ncnc3sccc23)n1 [Example 5.132]	≥ 80
COc1nc(-c2ccc(C)cc2)nc(ON=C2CC3CCC(C2)N3c2ncnc3sccc23)c1C [Example 5.251]	≥ 80
CCc1ncnc(N2[C@@H]3CC[C@H]2CC(Oc2ccc(OC)cc2Cl)C3)c1Cl (stereo partly shown) [Example 2.142]	≥ 80
CCc1ncnc(N2[C@@H]3CC[C@H]2CC(Oc2ccccc2-c2nnc(C(C)(C)C)o2)C3)c1Cl (stereo partly shown) [Example 2.190]	≥ 80
CCc1ncnc(N2C3CCC2CC(=NOc2cc(C)nc(SC)n2)C3)c1Cl [Example 5.94]	≥ 80
CCc1ncnc(N2C3CCC2CC(=NOc2nc(SC)nc(Cl)c2-c2ccccc2)C3)c1Cl [Example 5.125]	≥ 80
FC(F)(F)c1cc(CON=C2CC3CCC(C2)N3c2ncnc3sccc23)cc(C(F)(F)F)c1 [Example 5.186]	≥ 80
CN(C)c1cc(C(F)(F)F)nc(ON=C2CC3CCC(C2)N3c2ncnc3sccc23)n1 [Example 5.130]	≥ 80
CCc1ncnc(N2C3CCC2CC(=NOCc2cc(F)ccc2C(F)(F)F)C3)c1Cl [Example 5.101]	≥ 80
COc1cc(OC2C[C@H]3CC[C@@H](C2)N3c2ncnc3sccc23)cc(OC)c1OC (stereo partly shown) [Example 1.13]	≥ 80
CCc1ncnc(N2C3CCC2CC(=NOCc2cc(Br)cc(Br)c2)C3)c1Cl [Example 5.53]	≥ 80
CCc1ncnc(N2[C@@H]3CC[C@H]2CC(Oc2c(C(C)=O)cc(Cl)c4ccccc24)C3)c1Cl (stereo partly shown) [Example 2.187]	≥ 80
Fc1ccc(OC2C[C@H]3CC[C@@H](C2)N3c2ncnc3sccc23)cc1 (stereo partly shown) [Example 2.11]	≥ 80

Structure (SMILES)	pest or weed control at 200 ppm [%]
CC(C)(C)c1ccc(OC2C[C@H]3CC[C@@H](C2)N3c2ncnc3sccc23)c(C(C)(C)C)c1 (stereo partly shown) [Example 2.45]	≥ 80
CCc1ncnc(N2C3CCC2CC(=NOCc2ccc(C(C)(C)C)cc2)C3)c1Cl [Example 5.26]	≥ 80
CCc1ncnc(N2[C@@H]3CC[C@H]2CC(Oc2ccc(Br)cc2C)C3)c1Cl (stereo partly shown) [Example 1.180]	≥ 80
CCc1ncnc(N2[C@@H]3CC[C@H]2CC(Oc2ccccc2C(F)(F)F)C3)c1Cl (stereo partly shown) [Example 2.146]	≥ 80
CCc1nc(Cl)c(CC)c(ON=C2CC3CCC(C2)N3c2ncnc3sccc23)n1 [Example 5.194]	≥ 80
CCc1ncnc(N2C3CCC2CC(=NOCc2c4ccccc4cc4ccccc24)C3)c1Cl [Example 5.9]	≥ 80
CCc1nc(Cl)c(C)c(ON=C2CC3CCC(C2)N3c2ncnc3sccc23)n1 [Example 5.171]	≥ 80
CCc1ncnc(N2C3CCC2CC(=NOCc2cc(F)cc(C(F)(F)F)c2)C3)c1Cl [Example 5.96]	≥ 80
c1nc(C2C[C@H]3CC[C@@H](C2)N3c2ncnc3sccc23)c2ccsc2n1 (stereo partly shown) [Example 2.28]	≥ 80
CCCCCCCCC1COC2(CC3CCC(C2)N3c2ncnc3sccc23)O1 (stereo not shown) [Example 6.1]	≥ 80
CCOc1cc(C)ccc1OC1C[C@H]2CC[C@@H](C1)N2c1ncnc(CC)c1Cl (stereo partly shown) [Example 2.126]	≥ 80
CCCCCCOc1ccc(OC2C[C@H]3CC[C@@H](C2)N3c2ncnc(CC)c2Cl)cc1 (stereo partly shown) [Example 1.140]	≥ 80
CCc1ncnc(N2[C@@H]3CC[C@H]2CC(Oc2ccc(Br)cc2C(C)=O)C3)c1Cl (stereo partly shown) [Example 2.182]	≥ 80
CC(=O)c1cc(Cl)c2ccccc2c1OC1C[C@H]2CC[C@@H](C1)N2c1ncnc2sccc12 (stereo partly shown) [Example 2.59]	≥ 80
CCc1ncnc(N2C3CCC2CC(=NOc2cc(OC)nc(OC)n2)C3)c1Cl [Example 5.97]	≥ 80
CCc1ncnc(N2[C@@H]3CC[C@H]2CC(Oc2ccc(F)c(F)c2)C3)c1Cl (stereo partly shown) [Example 2.125]	≥ 80
Cc1c(CON=C2CC3CCC(C2)N3c2ncnc3sccc23)ccc2ccccc12 [Example 5.176]	≥ 80
CCc1ncnc(C(C)c2ncnc(N3C4CCC3CC(=NOCc3ccc(F)cc3)C4)c2Cl)c1Cl (stereo not shown) [Example 5.102]	≥ 80
c1cc(OC2C[C@H]3CC[C@@H](C2)N3c2ncnc3sccc23)ccn1 (stereo partly shown) [Example 2.7]	≥ 80
CCc1ncnc(N2[C@@H]3CC[C@H]2CC(Oc2cccc(Oc4nc(C)ns4)c2)C3)c1Cl (stereo partly shown) [Example 2.89]	≥ 80
COc1ccccc1OC1C[C@H]2CC[C@@H](C1)N2c1ncnc2sccc12 (stereo partly shown) [Example 2.4]	≥ 80
Cc1nc(ON=C2CC3CCC(C2)N3c2ncnc3sccc23)cc(N(C)C)n1 [Example 5.209]	≥ 80
Cc1ccc(C(C)(C)C)c(OC2C[C@H]3CC[C@@H](C2)N3c2ncnc3sccc23)c1 (stereo partly shown) [Example 2.43]	≥ 80
Cc1ccc(OC2C[C@H]3CC[C@@H](C2)N3c2ncnc3sccc23)cc1 (stereo partly shown) [Example 2.8]	≥ 80
CCc1ncnc(N2[C@@H]3CC[C@H]2CC(Oc2cccc(C(F)(F)F)c2F)C3)c1Cl (stereo partly shown) [Example 2.148]	≥ 80

Structure (SMILES)	pest or weed control at 200 ppm [%]
CCc1ncnc(N2C3CCC2CC(=NOc2cc(Cl)nc(Cl)n2)C3)c1Cl [Example 5.71]	≥ 80
CCc1ncnc(N2C3CCC2CC(=NOCc2cccc(OC(F)(F)F)c2)C3)c1Cl [Example 5.75]	≥ 80
CCc1ncnc(N2C3CCC2CC(=NOc2nc(N(C)C)cc(C(F)(F)F)n2)C3)c1Cl [Example 5.72]	≥ 80
COc1ccc(OC2C[C@H]3CC[C@@H](C2)N3c2ncnc3sccc23)c(Cl)c1 (stereo partly shown) [Example 2.16]	≥ 80
Cc1nsc(N2[C@@H]3CC[C@H]2CC(Oc2ccc(C(F)(F)F)cn2)C3)n1 (stereo partly shown) [Example 2.203]	≥ 80
FC(F)(F)c1ccc(Cl)c(CON=C2CC3CCC(C2)N3c2ncnc3sccc23)c1 [Example 5.195]	≥ 80
CCc1ncnc(N2C3CCC2CC(=NOCc2ccc(Cl)c(Cl)c2)C3)c1Cl [Example 5.52]	≥ 80
CCc1ncnc(N2C3CCC2CC(=NOCc2cc(Cl)ccc2Cl)C3)c1Cl [Example 5.62]	≥ 80
CCc1ncnc(N2[C@@H]3CC[C@H]2CC(Oc2cc(Cl)c(Cl)cc2Cl)C3)c1Cl (stereo partly shown) [Example 1.196]	≥ 80
CCc1ncnc(N2[C@@H]3CC[C@H]2CC(Oc2ccc(C)cc2)C3)c1Cl (stereo partly shown) [Example 1.162]	≥ 80
CCC(=O)c1cc(F)c(OC2C[C@H]3CC[C@@H](C2)N3c2ncnc(CC)c2Cl)c(F)c1 (stereo partly shown) [Example 2.207]	≥ 80
Clc1ccc(Oc2cccc(OC3C[C@H]4CC[C@@H](C3)N4c3ncnc4sccc34)c2)cc1 (stereo partly shown) [Example 2.15]	≥ 80
CCc1ncnc(N2C3CCC2CC(=NOc2cc(Oc4ccccc4)ncn2)C3)c1Cl [Example 5.108]	≥ 80
CCC(C)c1cccc(C(C)CC)c1OC1C[C@H]2CC[C@@H](C1)N2c1ncnc2sccc12 (stereo partly shown) [Example 2.46]	≥ 80
CCc1ncnc(N2[C@@H]3CC[C@H]2CC(Oc2ccc(C(C)(C)c4ccc(O)cc4)cc2)C3)c1Cl (stereo partly shown) [Example 2.131]	≥ 80
Cc1c(Cl)ncnc1N1[C@@H]2CC[C@H]1CC(Oc1cccc(C(F)(F)F)n1)C2 (stereo partly shown) [Example 2.94]	≥ 80
Cc1ccc(-c2c(C)cccc2C)c(C)c1OC1C[C@H]2CC[C@@H](C1)N2c1ncnc2sccc12 (stereo partly shown) [Example 2.49]	≥ 80
C#CCON=C1CC2CCC(C1)N2c1ncnc(C(C)c2ncnc(CC)c2Cl)c1Cl (stereo not shown) [Example 5.49]	≥ 80
ON=C1CC2CCC(C1)N2c1ncnc2sccc12 [Example 5.127]	≥ 80
CCc1ncnc(N2[C@@H]3CC[C@H]2CC(Oc2ccc(Oc4nc(C)ns4)cc2)C3)c1Cl (stereo partly shown) [Example 2.91]	≥ 80
Cn1nc(C(F)(F)F)c(Cl)c1C(=O)N1[C@@H]2CC[C@H]1CC(Oc1cc(C(F)(F)F)ccn1)C2 (stereo partly shown) [Example 2.220]	≥ 80
CCc1ncnc(C(C)c2ncnc(N3C4CCC3CC(=NOCc3ccccc3)C4)c2Cl)c1Cl (stereo not shown) [Example 5.77]	≥ 80
COCc1ncnc(N2[C@@H]3CC[C@H]2CC(Oc2cc(C(F)(F)F)ccn2)C3)c1OC (stereo partly shown) [Example 2.152]	≥ 80

From patent US20100331348A1, “TROPANE DERIVATIVES USEFUL AS PESTICIDES” (SYNGENTA CROP PROTECTION, INC., priority 2007, published 2010)
